Measurements: article PMC11318018 (ACS Medicinal Chemistry Letters, 2024)

Molecular target: HiBiT-RR BRD4 (Homo sapiens, UniProt O60885)
Test: Kinetic degradation of HiBiT-RR BRD4 CRISPR knock-in in HEK293 cells
Assay type: cell-based

DC50 or Dmax difference HiBiT-KK vs HiBiT-RR BRD4: no significant DC50 or Dmax difference
Compound: Cc1ncsc1-c1ccc(CNC(=O)[C@@H]2C[C@@H](O)CN2C(=O)[C@@H](NC(=O)COCCOCCOCCNC(=O)C[C@@H]2N=C(c3ccc(Cl)cc3)c3c(sc(C)c3C)-n3c(C)nnc32)C(C)(C)C)cc1 [MZ1]
